This note sets out measurements from US9770435B2 (EUROSCREEN SA, priority 2013, dated 2017).

As usually defined, the IC50 is the point on the concentration scale where inhibition reaches its midpoint.

In the experiment the test system is TNFα secretion from LPS-stimulated PBMC. Briefly: Cytokines release from peripheral blood mononuclear cell assay: TNFα. The settings on record: Homo sapiens, 3 h. The class given is cell-based. The procedure:
Data are presented as percentage of LPS response.
Data are presented as mean±SEM and the final concentration of each tested compound in the assay is 10 μM. Statistical analysis was performed by 2-way ANOVA followed by Dunnet's comparison to vehicle group, ****p<0.0001.
Cytokines Release from Peripheral Blood Mononuclear Cell Assay
Peripheral blood mononuclear cells (PBMC) are purified from heparinised fresh blood sample on a Lymphoprep gradient. PBMC are plated in 96-well assay plate (2×10^5 cells/well) and stimulated with or without LPS (100 ng/ml) and increasing concentration of compounds of the invention for 3 hours at 37° C. Cell supernatants are recovered after centrifugation and human soluble TNFα, IL-6 or other cytokines, are quantified using ELISA assay (R&D system) according manufacturer's recommendation.
Additional results with compounds of the invention are set out in tabulated form (Table 5).

As to `COc1ncc(-c2ccc(C(=O)N3[C@@H](c4ccccc4Cl)CC[C@H]3C(=O)O)cc2)c(OC)n1` [Compound 161, (2S,5R)-5-(2-chlorophenyl)-1-(4-(2,4-dimethoxypyrimidin-5-yl)benzoyl)pyrrolidine-2-carboxylic acid], the IC50 turned out to be 11.8 µM.

On to `COc1ncc(-c2ccc(C(=O)N3[C@@H](c4ccccc4Cl)CC[C@H]3C(=O)O)cc2Cl)c(OC)n1` [Compound 325, (2S,5R)-1-(3-chloro-4-(2,4-dimethoxypyrimidin-5-yl)benzoyl)-5-(2-chlorophenyl)pyrrolidine-2-carboxylic acid], for which the IC50 stood at 6 µM.

For `COc1ccc(C#N)cc1-c1ccc(C(=O)N2[C@@H](c3ccccc3Cl)CC[C@H]2C(=O)O)cc1` [Compound 345, (2S,5R)-5-(2-chlorophenyl)-1-(5′-cyano-2′-methoxy-[1,1′-biphenyl]-4-carbonyl)pyrrolidine-2-carboxylic acid], the midpoint of inhibition, the IC50, lay at 0.99 µM. Against the preceding compound, the IC50 is about 6.1-fold lower.

`COc1cc(C#N)c(-c2ccc(C(=O)N3[C@@H](c4ccccc4Cl)CC[C@H]3C(=O)O)cc2)cc1OC` [Compound 361, (2S,5R)-5-(2-chlorophenyl)-1-(2′-cyano-4′,5′-dimethoxy-[1,1′-biphenyl]-4-carbonyl)pyrrolidine-2-carboxylic acid] came in with an IC50 of 5.19 µM.

As to `N#Cc1ccccc1-c1ccc(C(=O)N2[C@@H](c3ccccc3Cl)CC[C@H]2C(=O)O)cc1F` [Compound 390, (2S,5R)-5-(2-chlorophenyl)-1-(2′-cyano-2-fluoro-[1,1′-biphenyl]-4-carbonyl)pyrrolidine-2-carboxylic acid], half-maximal inhibition (IC50) required 5.52 µM.

Compound `Cc1ccc(C#N)cc1-c1ccc(C(=O)N2[C@@H](c3cccc(F)c3F)CC[C@H]2C(=O)O)cc1` [Compound 421, (2S,5R)-1-(5′-cyano-2′-methyl-[1,1′-biphenyl]-4-carbonyl)-5-(2,3-difluorophenyl)pyrrolidine-2-carboxylic acid] showed an IC50 of 2.93 µM. Compared with the last compound, the IC50 is about 1.9-fold lower.
